Results taken from patent US20060041017A1, “Synergistic conjugated linoleic acid (CLA) and carnitine combination” (priority 2004, published 2006).

Legend:
Type in all cases: in vivo
[1] = system: Carnitine palmitoytransferase (CPT); experiment: CPT activity in heart mitochondria (spectrophotometric assay); details: Wistar rats, oral gavage daily 2 weeks; 91 mg CLA, 68,25 mg L-carnitine fumarate; means ± s.e.m.
Description: (§1) Methods: Four groups of 3-months old Wistar rats were given the following treatments by oral gavage daily for 2 weeks: (1) C (control)−1 ml corn oil, (2) CLA−91 mg CLA (in corn oil), (3) CAR−68,25 mg L-carnitine fumarate (in corn oil), (4) CLA+CAR−91 mg CLA with 68,25 mg L-carnitine fumarate (in corn oil). Body weight and body fat weight (corpus adiposum nuchae, corpus adiposum, perirenal tissue, omentum majus) were measured. CoQ 10 and CoQ9 in isolated mitochondria were estimated by HPLC method. For evaluation of parameters of oxidative phosphorylation were used Gilson oxygraph records of respiratory chain by using Clark oxygen electrode (S3— ADP stimulated respiration, S4— basal respiration, OPR—rate of ATP production). A spectrophotometric assay was used for CPT activity.

[2] = system: Carnitine palmitoytransferase (CPT); experiment: CPT activity in kidney mitochondria (spectrophotometric assay); details: Wistar rats, oral gavage daily 2 weeks; 91 mg CLA, 68,25 mg L-carnitine fumarate
Description: as §1

kidney mitochondrial CoQ = experiment: Kidney mitochondrial CoQ levels (HPLC) after 2 weeks of supplementation; details: Wistar rats; for Kidney mitochondrial CoQ content (CoQ10-OX+CoQ9-OX) in comparison with control group: 2 weeks, result in words; for KIDNEY mitochondria CoQ9-OX / KIDNEY mitochondria CoQ10 + CoQ9 / KIDNEY mitochondria CoQ10-OX: oral gavage daily 2 weeks, 91 mg CLA, 68,25 mg L-carnitine fumarate
Description: as §1

[3] = system: carnitine palmitoyl transferase (CPT 1); experiment: CPT I activity in brown adipose tissue after two weeks of daily oral gavage; details: adult rats, oral gavage daily for two weeks; for CPT I activity in brown adipose tissue (low dose) % Control: control = corn oil; for CPT I activity in brown adipose tissue (standard dose) % Control: control = water; for CPT I activity in brown adipose tissue (low dose) Mean ± SEM: L-Carnitine 68.25 mg, CLA 91 mg, Carnitine+CLA 68.25 mg+91 mg; for CPT I activity in brown adipose tissue (standard dose) Mean ± SEM: L-Carnitine 273 mg, CLA 354 mg, Carnitine+CLA 273 mg+364 mg
Source text: Brown adipose tissue is an important site for long-term storage of fat in the body and for the rapid metabolism of fat for thermogenesis. CPT I is a key enzyme in this process and it has an essential role In the metabolism of fats by transporting long chain fatty acids into the Inner mitochondria for oxidation. The first experiment involved the following groups of adult rats. The treatment involved administration of the following products daily by oral gavage for two weeks, the control group receiving water. Carnitine was administered as the fumarate salt. • 1. Control (water)−(1 mL) • 2. L-Carnitine−273 mg (in 1 mL water) • 3. CLA−354 mg (In 1 mL corn oil) • 4. Carnitine+CLA−273 mg+364 mg (in 1 mL corn oil) At the end of two weeks, the animals were euthanized and brown adipose tissue was excised for CPT I assay according to Rahman et al(2001). […] Corn Oil−(1 mL) • 2. L-Carnitine−68.25 mg (in 1 mL water) • 3. CLA−91 mg (in 1 mL corn oil) • 4. Carnitine+CLA−68.25 mg+91 mg (in 1 mL corn oil)

heart mitochondrial CoQ = experiment: Heart mitochondrial CoQ levels (HPLC) after 2 weeks of supplementation; details: Wistar rats; for Heart mitochondrial CoQ content (CoQ10-OX+CoQ9-OX) in comparison with control group: 2 weeks, result in words; for HEART mitochondria CoQ9-OX / HEART mitochondria CoQ10 + CoQ9 / HEART mitochondria CoQ10-OX: oral gavage daily 2 weeks, 91 mg CLA, 68,25 mg L-carnitine fumarate, means ± s.e.m.
Description: as §1

Compound	HEART mitochondria CPT [1] [nmol/mg rot./min]	KIDNEY mitochondria CPT [2] [nmol/mg rot./min]	Kidney mitochondrial CoQ content (CoQ10-OX+CoQ9-OX) in comparison with control group (kidney mitochondrial CoQ)	KIDNEY mitochondria CoQ9-OX (kidney mitochondrial CoQ) [nmol/mg prot.]	KIDNEY mitochondria CoQ10 + CoQ9 (kidney mitochondrial CoQ) [nmol/mg prot.]	KIDNEY mitochondria CoQ10-OX (kidney mitochondrial CoQ) [nmol/mg prot.]	CPT I activity in brown adipose tissue (low dose) % Control [3] [% Control]	CPT I activity in brown adipose tissue (standard dose) % Control [3] [% Control]	CPT I activity in brown adipose tissue (low dose) Mean ± SEM [3] [nmoles/mg protein/min]	CPT I activity in brown adipose tissue (standard dose) Mean ± SEM [3]	Heart mitochondrial CoQ content (CoQ10-OX+CoQ9-OX) in comparison with control group (heart mitochondrial CoQ)	HEART mitochondria CoQ9-OX (heart mitochondrial CoQ) [nmol/mg prot.]	HEART mitochondria CoQ10 + CoQ9 (heart mitochondrial CoQ) [nmol/mg prot.]	HEART mitochondria CoQ10-OX (heart mitochondrial CoQ) [nmol/mg prot.]
octadecadienoic acid [CLA]	15.52 ± 1.080	6.517 ± 0.351	significantly stimulated	1.162 ± 0.102	1.284 ± 0.105	0.122 ± 0.005	121.53	129.82	27.840 ± 1.259	29.530 + 1.590 nmoles/mg protein/min	significantly stimulated	3.379 ± 0.261	3.722 ± 0.298	0.343 ± 0.041
C[N+](C)(C)CC(O)CC(=O)[O-] (stereo not shown) [Carnitine, 3-hydroxy-4-N,N, N-trlmethylaminobutyrate]	12.36 ± 1.759	2.974 ± 0.466	significantly stimulated	1.290 ± 0.119	1.471 ± 0.128	0.138 ± 0.012	125	117.85	27.024 ± 2.074	26.808 ± 2.373 nmoles/mg protein/min	significantly stimulated	4.692 ± 0.168	5.147 ± 0.181	0.452 ± 0.021
